Source: patent US9694016B2 (Novartis AG, priority 2013, dated 2017)
Read-outs that look alike come from different tables or passages of the source.

Molecular target: b-Raf (V600E) (Homo sapiens (Human), UniProt P15056, V600E)
Conditions: read-out: b-Raf IC-50
[1] = Table 2, AlphaScreen, 3 hours reaction
[2] = AlphaScreen, 60 min pre-incubation, reaction 3 hours at room temperature
[3] = AlphaScreen, 60 min pre-incubation, 3 hours reaction

b-Raf (V600E), sequence (P15056 whole entry V600E): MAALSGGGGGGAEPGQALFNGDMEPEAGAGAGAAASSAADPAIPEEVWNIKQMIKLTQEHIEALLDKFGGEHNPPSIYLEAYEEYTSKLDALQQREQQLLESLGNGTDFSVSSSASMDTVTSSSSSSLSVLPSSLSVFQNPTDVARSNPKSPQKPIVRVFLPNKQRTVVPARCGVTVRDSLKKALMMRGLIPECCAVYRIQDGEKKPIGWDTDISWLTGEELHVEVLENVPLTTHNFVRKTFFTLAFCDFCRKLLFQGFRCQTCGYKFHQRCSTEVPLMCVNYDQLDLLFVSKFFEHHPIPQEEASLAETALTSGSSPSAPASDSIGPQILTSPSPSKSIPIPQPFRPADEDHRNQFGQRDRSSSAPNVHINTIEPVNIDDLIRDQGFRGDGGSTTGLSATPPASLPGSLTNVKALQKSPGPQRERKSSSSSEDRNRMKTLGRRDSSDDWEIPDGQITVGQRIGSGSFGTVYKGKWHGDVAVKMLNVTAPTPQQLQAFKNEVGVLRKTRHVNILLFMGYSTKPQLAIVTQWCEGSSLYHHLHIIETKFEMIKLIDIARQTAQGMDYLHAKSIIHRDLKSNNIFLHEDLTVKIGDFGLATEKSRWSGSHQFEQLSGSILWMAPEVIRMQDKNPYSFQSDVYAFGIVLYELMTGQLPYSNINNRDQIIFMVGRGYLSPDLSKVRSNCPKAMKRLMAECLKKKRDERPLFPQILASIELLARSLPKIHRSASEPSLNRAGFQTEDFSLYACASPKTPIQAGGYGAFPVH

Compound	IC50 [2]	IC50 [3]	further results
Cc1ccc(NC(=O)c2cccc(C(F)(F)F)c2)cc1-c1cc(N2CCS(=O)(=O)CC2)nc(N2CCOCC2)n1 [Example 6, N-(3-(6-(1,1-dioxidothiomorpholino)-2-morpholinopyrimidin-4-yl)-4-methylphenyl)-3-(trifluoromethyl)benzamide]			IC50 [1]: 1.3 nM
Cc1ccc(NC(=O)c2cc(C(C)(C)C#N)ccn2)cc1-c1cc(N2CCOCC2)c(=O)n(C)c1 [Example 903, 4-(2-cyanopropan-2-yl)-N-(4-methyl-3-(1-methyl-5-morpholino-6-oxo-1,6-dihydropyridin-3-yl)phenyl)picolinamide]	3.64 nM		
Cc1ccc(NC(=O)c2ccnc(C(C)(C)F)c2)cc1-c1cc(OCCO)nc(N2CCOCC2)c1 [Example 1158, 2-(2-fluoropropan-2-yl)-N-(3-(2-(2-hydroxyethoxy)-6-morpholinopyridin-4-yl)-4-methylphenyl)isonicotinamide]	1.63 nM		
Cc1ccc(NC(=O)c2cnnc(C(F)(F)F)c2)cc1-c1cc(NCCO)nc(N2CCOCC2)c1 [Example 1047, N-(3-(2-((2-hydroxyethyl)amino)-6-morpholinopyridin-4-yl)-4-methylphenyl)-6-(trifluoromethyl)pyridazine-4-carboxamide]	3.95 nM		
Cc1ccc(NC(=O)c2ccnc(C(C)(F)F)c2)cc1-c1cc(OCCO)nc(N2CCOCC2)c1 [Example 1159, 2-(1,1-difluoroethyl)-N-(3-(2-(2-hydroxyethoxy)-6-morpholinopyridin-4-yl)-4-methylphenyl)isonicotinamide]	0.75 nM		
Cc1ccc(NC(=O)c2ccnc(C(C)(C)C#N)c2)cc1-c1cc(N2CCOC[C@@H]2C)c(=O)n(C)n1 [Example 663, (S)-2-(2-cyanopropan-2-yl)-N-(4-methyl-3-(1-methyl-5-(3-methylmorpholino)-6-oxo-1,6-dihydropyridazin-3-yl)phenyl)isonicotinamide]		9.2 nM	
Cc1ncc(NC(=O)c2ccnc(C(C)(F)F)c2)cc1-c1cc(N2CCOCC2)c2nccn2c1 [Example 879, 2-(1,1-difluoroethyl)-N-(6-methyl-5-(8-morpholinoimidazo[1,2-a]pyridin-6-yl)pyridin-3-yl)isonicotinamide]	6.1 nM		
Cc1ccc(NC(=O)c2ccnc(C3(C#N)CC3)c2)cc1-c1cc(NCCO)nc(N2CCOCC2)c1F [Example 1011, 2-(1-cyanocyclopropyl)-N-(3-(3-fluoro-6-((2-hydroxyethyl)amino)-2-morpholinopyridin-4-yl)-4-methylphenyl)isonicotinamide]	24.5 nM		
Cc1ccc(NC(=O)c2cnnc(C(C)(C)C#N)c2)cc1-c1cc(N2CCOCC2)n(C)c(=O)c1 [Example 489, 6-(2-cyanopropan-2-yl)-N-(4-methyl-3-(1-methyl-6-morpholino-2-oxo-1,2-dihydropyridin-4-yl)phenyl)pyridazine-4-carboxamide]		2.4 nM	
CCNc1nc(-c2cc(NC(=O)c3cccc(C(C)(F)F)c3)ccc2C)cc(N2CCOCC2)n1 [Example 701, 3-(1,1-difluoroethyl)-N-(3-(2-(ethylamino)-6-morpholinopyrimidin-4-yl)-4-methylphenyl)benzamide]		1.3 nM	
Cc1ncc(NC(=O)c2cccc(C(F)(F)F)c2)cc1-c1ccc(C#N)c(N2CCOCC2)c1 [Example 684]		2.9 nM	
CCOc1nnc(-c2cc(NC(=O)c3cnnc(C(F)(F)F)c3)cnc2C)cc1N1CCOCC1 [Example 614, N-(5-(6-ethoxy-5-morpholinopyridazin-3-yl)-6-methylpyridin-3-yl)-6-(trifluoromethyl)pyridazine-4-carboxamide]		4.2 nM	
Cc1ccc(NC(=O)c2ccnc(C(C)(C)C#N)c2)cc1-c1nc2c(c(N3CCOCC3)n1)CN(C(=O)OC(C)(C)C)CC2 [Example 864, tert-butyl 2-(5-(2-(2-cyanopropan-2-yl)isonicotinamido)-2-methylphenyl)-4-morpholino-7,8-dihydropyrido[4,3-d]pyrimidine-6(5H)-carboxylate]	70.2 nM		
CCN1CCN(c2cc(C(=O)Nc3cnc(C)c(-c4cc(NCCO)nc(N5CCOCC5)c4)c3)cc(C(F)(F)F)c2)CC1 [Example 1045, 3-(4-ethylpiperazin-1-yl)-N-(2′-((2-hydroxyethyl)amino)-2-methyl-6′-morpholino-[3,4′-bipyridin]-5-yl)-5-(trifluoromethyl)benzamide]	32.9 nM		
Cc1ccc(NC(=O)c2cncc(C(F)(F)F)c2)cc1-c1cc(N2CCOCC2)c(=O)n(C)c1 [Example 904, N-(4-methyl-3-(1-methyl-5-morpholino-6-oxo-1,6-dihydropyridin-3-yl)phenyl)-5-(trifluoromethyl)nicotinamide]	2.01 nM		
CCc1cccc(NC(=O)c2ccc(C)c(-c3cc(N4CCOCC4)c(=O)n(C)c3)c2)c1 [Example 435, N-(3-ethylphenyl)-4-methyl-3-(1-methyl-5-morpholino-6-oxo-1,6-dihydropyridin-3-yl)benzamide]			IC50 [1]: 2.4 nM
CCOc1nnc(-c2cc(NC(=O)c3ccc(CNC)c(C(F)(F)F)c3)ccc2C)cc1N1CCOCC1 [Example 574, N-(3-(6-ethoxy-5-morpholinopyridazin-3-yl)-4-methylphenyl)-4-((methylamino)methyl)-3-(trifluoromethyl)benzamide]			IC50: 2.2 nM

Compound	IC50 [2]	IC50 [3]	further results
Cc1ncc(NC(=O)c2ccnc(C(C)(C)F)c2)cc1-c1cnc(OCCO)c(N2CCOCC2)c1 [Example 299, 2-(2-fluoropropan-2-yl)-N-(6′-(2-hydroxyethoxy)-2-methyl-5′-morpholino-[3,3′-bipyridin]-5-yl)isonicotinamide]			IC50 [1]: 6.9 nM
Cc1ncc(NC(=O)c2cnnc(C3(C#N)CC3)c2)cc1-c1cnc(OCC(F)F)c(N2CCOCC2)c1 [Example 936, 6-(1-cyanocyclopropyl)-N-(6′-(2,2-difluoroethoxy)-2-methyl-5′-morpholino-[3,3′-bipyridin]-5-yl)pyridazine-4-carboxamide]	7.55 nM		
Cc1ccc(NC(=O)c2cccc(C(F)(F)F)c2)cc1-c1nc(N2CCOCC2)c2cccnc2n1 [Example 833, N-(4-methyl-3-(4-morpholinopyrido[2,3-d]pyrimidin-2-yl)phenyl)-3-(trifluoromethyl)benzamide]		1.7 nM	
CCOc1cccc(C(=O)Nc2cnc(C)c(-c3cc(N4CCOCC4)c(=O)n(C)c3)c2)c1 [Example 397, N-(1′,2-dimethyl-5′-morpholino-6′-oxo-1′,6′-dihydro-[3,3′-bipyridin]-5-yl)-3-ethoxybenzamide]			IC50 [1]: 10 nM
Cc1ccc(NC(=O)c2ccnc(C(C)(C)O)c2)cc1-c1cc(N2CCOCC2)n2nccc2n1 [Example 794, 2-(2-hydroxypropan-2-yl)-N-(4-methyl-3-(7-morpholinopyrazolo[1,5-a]pyrimidin-5-yl)phenyl)isonicotinamide]		2.6 nM	
COc1nnc(-c2cc(NC(=O)c3cccc(S(C)(=O)=O)c3)ccc2C)cc1N1CCOCC1 [Example 553, N-(3-(6-methoxy-5-morpholinopyridazin-3-yl)-4-methylphenyl)-3-(methylsulfonyl)benzamide]		1.2 nM	
Cc1ncc(NC(=O)c2ccccc2)cc1-c1cc(N2CCOCC2)n(C)c(=O)c1 [Example 503, N-(1′,2-dimethyl-6′-morpholino-2′-oxo-1′,2′-dihydro-[3,4′-bipyridin]-5-yl)benzamide]		200 nM	
Cc1ccc(NC(=O)c2ccnc(C(C)(F)F)c2)cc1-c1cc(N2CCOCC2)c(OC2CCOCC2)nn1 [Example 579, 2-(1,1-difluoroethyl)-N-(4-methyl-3-(5-morpholino-6-((tetrahydro-2H-pyran-4-yl)oxy)pyridazin-3-yl)phenyl)isonicotinamide]		0.6 nM	
Cc1ncc(NC(=O)c2ccc(C#N)c(C(F)(F)F)c2)cc1-c1cc(N2CCOCC2)c2nccn2c1 [Example 877, 4-cyano-N-(6-methyl-5-(8-morpholinoimidazo[1,2-a]pyridin-6-yl)pyridin-3-yl)-3-(trifluoromethyl)benzamide]	6.5 nM		
Cc1cc(=O)c(C(=O)Nc2cccc(C(F)(F)F)c2)cn1-c1ccnc(N2CCOCC2)c1 [Example 1175, 6-methyl-2′-morpholino-4-oxo-N-(3-(trifluoromethyl)phenyl)-4H-[1,4′-bipyridine]-3-carboxamide]	80 nM		
Cc1ccc(NC(=O)c2cccc(C(F)(F)F)c2)cc1-c1nc2c(c(N3CCOCC3)n1)CNCC2 [Example 835, N-(4-methyl-3-(4-morpholino-5,6,7,8-tetrahydropyrido[4,3-d]pyrimidin-2-yl)phenyl)-3-(trifluoromethyl)benzamide]		2.1 nM	
Cn1cc(-c2cc(NC(=O)c3ccnc(C(C)(F)F)c3)cnc2Cl)cc(N2CCOCC2)c1=O [Example 405, N-(2-chloro-1′-methyl-5′-morpholino-6′-oxo-1′,6′-dihydro-[3,3-bipyridin]-5-yl)-2-(1,1-difluoroethyl)isonicotinamide]			IC50 [1]: 4.5 nM
Cc1ccc(NC(=O)c2cc(C3CC3)on2)cc1-c1cc(N2CCOCC2)c(=O)n(C)c1 [Example 372, 5-cyclopropyl-N-(4-methyl-3-(1-methyl-5-morpholino-6-oxo-1,6-dihydropyridin-3-yl)phenyl)isoxazole-3-carboxamide]			IC50 [1]: 0.7 nM
CCOc1ncc(-c2cc(NC(=O)c3cccc(-c4nnco4)c3)cnc2C)cc1N1CCOCC1 [Example 244, N-(6′-ethoxy-2-methyl-5′-morpholino-[3,3′-bipyridin]-5-yl)-3-(1,3,4-oxadiazol-2-yl)benzamide]			IC50 [1]: 7.6 nM
CCOc1ncc(-c2cc(NC(=O)c3cnnc(C(C)(C)C#N)c3)cnc2C)cc1N1CCOCC1 [Example 287, 6-(2-cyanopropan-2-yl)-N-(6′-ethoxy-2-methyl-5′-morpholino-[3,3′-bipyridin]-5-yl)pyridazine-4-carboxamide]			IC50 [1]: 16.5 nM
Cc1ccc(NC(=O)c2cnnc(C(F)(F)F)c2)cc1-c1cc(N2CCOCC2)nc(N2CC(C)(O)C2)c1 [Example 1073, N-(3-(2-(3-hydroxy-3-methylazetidin-1-yl)-6-morpholinopyridin-4-yl)-4-methylphenyl)-6-(trifluoromethyl)pyridazine-4-carboxamide]	2.99 nM		
